Consider 8 molecules from patent publication US4276378A, “High sensitivity assays for angiotensin converting enzyme” (priority 1977, dated 1981).

A short description of data set [1]: Solvent extraction of substrate and remnant product from acidified reaction mixture. The data set is classed as physicochemical. The settings on record: toluene and acidified reaction mixture in approximately equal volumes at room temperature. From the text:
While a variety of organic solvents may be suitable for the extraction step, it is preferred to employ toluene.

Data set [2] deals with T1, ACE (Oryctolagus cuniculus, UniProt P12822).
T1 sequence (P12822 34-1310): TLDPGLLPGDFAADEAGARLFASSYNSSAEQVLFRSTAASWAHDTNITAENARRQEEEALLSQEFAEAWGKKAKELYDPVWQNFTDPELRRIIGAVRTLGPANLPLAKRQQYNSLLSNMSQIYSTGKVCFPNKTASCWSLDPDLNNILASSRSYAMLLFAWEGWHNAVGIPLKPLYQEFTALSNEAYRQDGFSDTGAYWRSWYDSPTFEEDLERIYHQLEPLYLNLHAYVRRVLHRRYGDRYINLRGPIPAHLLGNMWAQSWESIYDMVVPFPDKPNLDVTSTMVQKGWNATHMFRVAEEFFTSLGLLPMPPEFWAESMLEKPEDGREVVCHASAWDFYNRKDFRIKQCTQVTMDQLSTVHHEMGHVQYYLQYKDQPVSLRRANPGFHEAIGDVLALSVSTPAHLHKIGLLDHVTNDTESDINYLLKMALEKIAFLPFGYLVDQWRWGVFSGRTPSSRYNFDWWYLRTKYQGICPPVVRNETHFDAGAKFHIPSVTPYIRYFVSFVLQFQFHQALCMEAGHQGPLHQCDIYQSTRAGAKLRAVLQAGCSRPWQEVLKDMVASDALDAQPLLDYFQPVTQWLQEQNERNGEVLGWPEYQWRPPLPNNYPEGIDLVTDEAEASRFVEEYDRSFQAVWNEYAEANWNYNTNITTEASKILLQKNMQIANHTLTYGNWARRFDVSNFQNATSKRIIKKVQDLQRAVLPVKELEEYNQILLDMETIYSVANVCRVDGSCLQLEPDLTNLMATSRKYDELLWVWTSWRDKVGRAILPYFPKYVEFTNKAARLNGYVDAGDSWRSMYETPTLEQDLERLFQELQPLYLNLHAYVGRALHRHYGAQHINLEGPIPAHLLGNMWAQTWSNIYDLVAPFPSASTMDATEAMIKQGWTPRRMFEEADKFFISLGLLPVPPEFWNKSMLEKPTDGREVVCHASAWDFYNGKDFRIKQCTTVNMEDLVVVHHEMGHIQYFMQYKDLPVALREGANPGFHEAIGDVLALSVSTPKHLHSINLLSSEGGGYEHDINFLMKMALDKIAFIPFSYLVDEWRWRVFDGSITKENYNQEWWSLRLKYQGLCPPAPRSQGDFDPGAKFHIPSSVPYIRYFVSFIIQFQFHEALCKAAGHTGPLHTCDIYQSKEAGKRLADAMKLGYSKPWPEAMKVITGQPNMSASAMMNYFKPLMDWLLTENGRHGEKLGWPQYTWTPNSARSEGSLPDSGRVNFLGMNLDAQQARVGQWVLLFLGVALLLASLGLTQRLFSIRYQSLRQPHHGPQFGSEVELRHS
The following applies: cited from earlier work.

In data set [3] the target is T1, ACE. The settings on record: compared with a buffer presumably lacking chloride; cited from earlier work.
Data set [4] concerns enzyme isolated from hog lung (ACE). The settings on record: cited from earlier work.
The mark [5] stands for this setting: sulfate ion 0.6 M in the presence of 0.1 M chloride, pH 8.

Square brackets hold non-standard residues; d marks the D form. Peptide text beside a SMILES is read from it. * marks the point of attachment. pGlu = O=C1CC[C@@H](C(=O)O)N1; Boc = CC(C)(C)OC(=O)*; Bz = O=C(c1ccccc1)*; ClAc = O=C(CCl)*

On to `O=C(N[C@@H](Cc1ccccc1)C(=O)O)c1ccccc1` [^3 H-benzoylPhe, benzoylPhe], for which, in data set [1], the “fraction entering the toluene phase” value was “Approximately 88%”.
For `C[C@H](NC(=O)[C@H](Cc1ccccc1)NC(=O)OC(C)(C)C)C(=O)N1CCC[C@H]1C(=O)O` [t-butyloxycarbonylPheAlaPro] (Boc-Phe-Ala-Pro-OH), the ACE inhibition result on ACE [2] is given as “inhibit ACE”.
As to `C[C@H](NC(=O)[C@H](Cc1ccccc1)NC(=O)CCl)C(=O)N1CCC[C@H]1C(=O)O` [chloroacetylPheAlaPro] (ClAc-Phe-Ala-Pro-OH), the ACE inhibition entry at ACE [2] is listed as “ACE inhibitors”.
Turning to `C[C@H](NC(=O)[C@H](Cc1c[nH]c2ccccc12)NC(=O)[C@H](CCCCN)NC(=O)[C@@H]1CCC(=O)N1)C(=O)O` [<GluLysTrpAla] ([pGlu]KWA-OH), the ACE inhibition result at ACE [2] is given as “ACE inhibitors”.
For the molecule `C[C@H](NC(=O)[C@@H](N)Cc1ccccc1)C(=O)N1CCC[C@H]1C(=O)O` [PheAlaPro] (H-Phe-Ala-Pro-OH), the ACE inhibition result at ACE [2] was “inhibit ACE”.
For `C[C@H](NC(=O)[C@H](Cc1c[nH]c2ccccc12)NC(=O)[C@H](CCCCN)NC(=O)[C@@H]1CCC(=O)N1)C(=O)N1CCC[C@H]1C(=O)O` [SQ20475, <GluLysTrpAlaPro] ([pGlu]KWAP-OH), the “rate of cleavage in the presence of chloride” value on ACE [3] is reported as “more slowly”.
On to `C[C@H](NC(=O)[C@H](Cc1c[nH]c2ccccc12)NC(=O)[C@@H]1CCC(=O)N1)C(=O)N1CCC[C@H]1C(=O)O` [<GluTrpAlaPro] ([pGlu]WAP-OH), for which the ACE inhibition entry on ACE [2] is “ACE inhibitors”.
For the molecule `O=C(O)CNC(=O)CNC(=O)CNC(=O)c1ccccc1` [HipGlyGly] (Bz-Gly-Gly-Gly-OH), in data set [4] (Na2 SO4 0.001 M to 0.6 M, no NaCl), the “hydrolysis in the absence of NaCl” value was “no hydrolysis”. In addition, in data set [4] (setting [5]), the “decrease of Km by sulfate” value is “about 15%” and the “increase of Vmax by sulfate” value was “about 5 fold”.
